A short description of data set [1]: Solubility in aqueous media. Format: physicochemical.
Data set [2] relates to patients with advanced renal cell carcinoma. Briefly: METEOR trial, safety. Format: in vivo, human. From the text:
Patients on both arms who had disease progression could continue treatment at the discretion of the investigator [see Clinical Studies (14)].

Data set [3] relates to advanced RCC after prior anti-angiogenic therapy. Put plainly: METEOR trial, efficacy. The format is in vivo, human. From the text:
Patients were stratified by the number of prior VEGFR tyrosine kinase inhibitors (TKIs) and Memorial Sloan Kettering Cancer Center (MSKCC) Risk Group. […] The majority of the patients were male (75%), with a median age of 62 years. Sixty-nine percent (69%) received only one prior anti-angiogenic therapy. […] The main efficacy outcome measure was progression-free survival (PFS) assessed by a blinded independent radiology review committee among the first 375 subjects randomized. Other efficacy endpoints were objective response rate (ORR) and overall survival (OS) in the Intent-to-Treat (ITT) population. Tumor assessments were conducted every 8 weeks for the first 12 months, then every 12 weeks thereafter. Patients received treatment until disease progression or experiencing unacceptable toxicity. Patients on both arms who had disease progression could continue treatment at the discretion of the investigator.

Data set [4] deals with sorafenib-tolerant patients with hepatocellular carcinoma. The settings on record: in vivo; cited from earlier work.
In data set [5] the test system is patients with advanced renal cell carcinoma. Put plainly: CABOSUN trial, safety. The format is in vivo, human.
Data set [6] concerns advanced RCC without prior therapy. Briefly: CABOSUN trial, efficacy. The settings on record: ITT. The format is in vivo, human. An excerpt:
All patients were required to have intermediate or poor risk disease as defined by the International Metastatic RCC Database Consortium (IMDC) risk group categories. Patients were stratified by IMDC risk group and presence of bone metastases (yes/no).
The major efficacy outcome measure was progression-free survival (PFS) by a retrospective blinded independent radiology review committee (BIRC).

Data set [7] concerns patients who have not received prior systemic therapy. As to conditions: in vivo; cited from earlier work.

Regarding `COc1cc2nccc(Oc3ccc(NC(=O)C4(C(=O)Nc5ccc(F)cc5)CC4)cc3)c2cc1OC.O=C(O)C[C@H](O)C(=O)O` [Cabozantinib (S)-malate salt], the Solubility result in data set [1] is “practically insoluble”.
With `CO[C@H]1C[C@@H]2CC[C@@H](C)[C@@](O)(O2)C(=O)C(=O)N2CCCC[C@H]2C(=O)O[C@H]([C@H](C)C[C@@H]2CC[C@@H](OCCO)[C@H](OC)C2)CC(=O)[C@H](C)/C=C(\C)[C@@H](O)[C@@H](OC)C(=O)[C@H](C)C[C@H](C)/C=C/C=C/C=C/1C` [Everolimus, everolimus], in data set [2] (METEOR), the “Adverse reactions leading to study treatment being held” value stood at 59% and the “Adverse reactions leading to study treatment discontinuation” value amounted to 10%. In addition, in data set [2] (METEOR adverse reaction), the “Palmar-plantar erythrodysesthesia, All Grades” value came to 6% and the “Palmar-plantar erythrodysesthesia, Grade 3-4” value is less than 1%. Further, the “Confirmed ORR, partial responses only” value in data set [3] (ITT) came to 3%. In addition, in data set [3] (first 375 randomized), the “Median PFS (95% CI)” value was 3.8 (3.7, 5.4) months.
For `CNC(=O)c1cc(Oc2ccc(NC(=O)Nc3ccc(Cl)c(C(F)(F)F)c3)c(F)c2)ccn1` [Regorafenib], the “Overall survival compared with placebo” value in data set [4] is “improved overall survival”.
Consider `CCN(CC)CCNC(=O)c1c(C)[nH]c(/C=C2\C(=O)Nc3ccc(F)cc32)c1C` [Sunitinib, sunitinib], for which the “Deaths within 30 days of treatment” value in data set [5] (CABOSUN) is recorded as 6 deaths. Besides, in data set [5] (human, in vivo), the “ALT increased, Grade 3-4” value is given as 0%; the “AST increased, Grade 3-4” value was determined as 3%; the “Anemia, Grade 3-4” value came out at 3%; the “Angiopathy, Grade 3-4” value amounted to 1%. For the same molecule, in data set [5] (human, in vivo), the “Arthralgia, Grade 3-4” value came out at 0%; the “Back pain, Grade 3-4” value came out at 0%; the “Blood creatinine increased, Grade 3-4” value worked out at 3%; the “Bone pain, Grade 3-4” value stood at 1%. Further, in data set [5] (human, in vivo), the “Confusional state, Grade 3-4” value came to 1%; the “Constipation, Grade 3-4” value is 0%; the “Decreased appetite, Grade 3-4” value is on record as 1%; the “Dehydration, Grade 3-4” value was 1%. For the same molecule, in data set [5] (human, in vivo), the “Depression, Grade 3-4” value is on record as 0%; the “Diarrhea, Grade 3-4” value stood at 11%; the “Dysphonia, Grade 3-4” value worked out at 0%; the “Dyspnea, Grade 3-4” value was determined as 6%. Further, in data set [5] (human, in vivo), the “Fatigue, Grade 3-4” value came to 17%; the “Hyperkalemia, Grade 3-4” value amounted to 3%; the “Hypertension, Grade 3-4” value was determined as 21%; the “Hypocalcemia, Grade 3-4” value was 0%. In data set [5] (human, in vivo), the “Hypomagnesemia, Grade 3-4” value amounted to 0%; the “Hyponatremia, Grade 3-4” value is 8%; the “Hypophosphatemia, Grade 3-4” value was 7%; the “Hypotension, Grade 3-4” value is listed as 1%. Further, in data set [5] (human, in vivo), the “Lung infection, Grade 3-4” value turned out to be 0%; the “Lymphocyte count decreased, Grade 3-4” value was 6%; the “Nausea, Grade 3-4” value is recorded as 4%; the “Pain in extremity, Grade 3-4” value amounted to 0%. Also, in data set [5] (human, in vivo), the “Pain, Grade 3-4” value is listed as 0%; the “Palmar-plantar erythrodysesthesia, Grade 3-4” value is recorded as 4%; the “Patients discontinued due to an adverse reaction” value is listed as 22%; the “Patients with any Grade 3-4 Adverse Reaction” value is 65%. Besides, in data set [5] (human, in vivo), the “Patients with dose held” value is on record as 71%; the “Patients with dose reduced” value was determined as 35%; the “Platelet count decreased, Grade 3-4” value is 11%; the “Proteinuria, Grade 3-4” value worked out at 1%. For the same molecule, in data set [5] (human, in vivo), the “Renal failure acute, Grade 3-4” value was determined as 1%; the “Skin ulcer, Grade 3-4” value came out at 0%; the “Stomatitis, Grade 3-4” value worked out at 6%; the “Syncope, Grade 3-4” value turned out to be 0%. For the same molecule, in data set [5] (human, in vivo), the “Vomiting, Grade 3-4” value is 3% and the “Weight decreased, Grade 3-4” value is on record as 0%. In data set [6], the Overall survival events result is “(60) %”. Moreover, in data set [6] (BIRC), the “Confirmed ORR, partial responses only” value worked out at 9%; the “Median PFS” value was 5.3 months; the Progression-free survival events entry is “(63) %”.
For `CNC(=O)c1cc(Oc2ccc(NC(=O)Nc3ccc(Cl)c(C(F)(F)F)c3)cc2)ccn1` [sorafenib], in data set [7], the Objective responses result is “very few objective responses” and the Overall survival result is “improves overall survival”.
